Data on 15 molecules can be found in ChEMBL document CHEMBL1921758, “Indole alkaloids and quassinoids from the stems of Brucea mollis” (J Nat Prod, 2011).

For orientation: IC50 means the midpoint of a concentration-inhibition curve. Read a high IC50 as lower potency.

Holding throughout (type): functional, cell-based
The subject of test [1] is HCT-8. Put plainly: Cytotoxicity against human HCT8 cells by MTT assay.
For test [2], the system named is Bel-7402. Put plainly: Cytotoxicity against human Bel7402 cells by MTT assay.
Test [3] in a line: Cytotoxicity against human […] cells by MTT assay.
Test [4] deals with A2780. Put plainly: Cytotoxicity against human A2780 cells by MTT assay.
In test [5] the test system is A549. Put plainly: Cytotoxicity against human A549 cells by MTT assay. On the technique in general: Tetrazolium dyes change colour on reduction, which living cells bring about.

Turning to `CC1(C)C(=O)C(=O)c2c1[nH]c1cc(O)ccc21` [BRUCEOLLINE H], the IC50 in test [1], in test [2], in test [3], in test [4] and in test [5] was above 10 µM each time.
Consider `CC1=CC(=O)O[C@H]1[C@@]1(C)C[C@H]2OC(=O)[C@H](O)[C@H]3[C@@H](CO)[C@@H](O)[C@H](O)[C@H]1[C@]32C` (relative stereo), for which the IC50 in test [1], in test [2], in test [3], in test [4] and in test [5] was above 10 µM in each case.
Take `CC1=CC(=O)[C@@H](O)[C@]2(C)[C@H]3[C@@H](O)[C@H](O)[C@]4(C)OC[C@@]35[C@@H](C[C@@H]12)OC(=O)[C@H](O)[C@]54O` [BRUCEINE D]: the IC50 in test [1] is 5.81 µM; in test [2], 3.51 µM; in test [3] it was 3.8 µM; in test [4], above 10 µM; in test [5], above 10 µM.
As for `CC(C)[C@@H](O)C(=O)c1c[nH]c2ccccc12` [BRUCEOLLINE L], the IC50 in test [1], in test [2], in test [3], in test [4] and in test [5] was above 10 µM in each case.
`CC(C)(O)C(=O)Cc1cn([C@@H]2O[C@H](CO)[C@@H](O)[C@H](O)[C@H]2O)c2ccccc12` [BRUCEOLLINE M]: the IC50 in test [1], in test [2], in test [3], in test [4] and in test [5] was above 10 µM throughout.
As for `CC1(C)c2[nH]c3ccccc3c2C(=O)[C@@H]1O` [BRUCEOLLINE J], the IC50 in test [1], in test [2], in test [3], in test [4] and in test [5] was above 10 µM in each case.
In the case of `CC1(C)c2[nH]c3ccccc3c2C(=O)[C@@H]1O[C@@H]1O[C@H](CO)[C@@H](O)[C@H](O)[C@H]1O` [BRUCEOLLINE K], the IC50 in test [1], in test [2], in test [3], in test [4] and in test [5] was above 10 µM each time.
As for `COc1cccc2c1C(=O)c1c(O)c3c(c(O)c1C2=O)C[C@@](O)(C(=O)CO)C[C@@H]3O[C@H]1C[C@H](N)[C@H](O)[C@H](C)O1` [DOXORUBICIN], the IC50 in test [1] worked out at 0.42 µM; in test [2] it was 0.53 µM; in test [3], 0.98 µM; in test [4], 0.33 µM; in test [5] it was 0.72 µM.
For `CC1(C)c2[nH]c3cc(O)ccc3c2C(=O)[C@@H]1O` [BRUCEOLLINE I], the IC50 in test [1], in test [2], in test [3], in test [4] and in test [5] was above 10 µM in each case.
On to `CC1=CC(=O)[C@@H](O)[C@]2(C)[C@H]3[C@@H](O)[C@H](O)[C@H](CO)[C@@H]4[C@@H](O)C(=O)O[C@H](C[C@@H]12)[C@@]43C` (relative stereo), for which the IC50 is 3.36 µM in test [1]; 4.4 µM in test [2]; 3 µM in test [3]; above 10 µM in test [4]; above 10 µM in test [5].
Turning to `CC(C)(O)[C@@H](O)C[C@]1(O)C(=O)N([C@@H]2O[C@H](CO)[C@@H](O)[C@H](O)[C@H]2O)c2ccccc21` [BRUCEOLLINE N], the IC50 in test [1], in test [2], in test [3], in test [4] and in test [5] was above 10 µM in each case.
Turning to `CC(C)(O)[C@@H](O)Cc1cn([C@@H]2O[C@H](CO)[C@@H](O)[C@H](O)[C@H]2O)c2ccccc12` [BRUCEOLLINE F], the IC50 in test [1], in test [2], in test [3], in test [4] and in test [5] was above 10 µM in each case.
In the case of `CC1=CC(=O)[C@@H](O)[C@]2(C)[C@H]3[C@@H](O)[C@H](O)[C@H](CO[C@@H]4O[C@H](CO)[C@@H](O)[C@H](O)[C@H]4O)[C@@H]4[C@@H](O)C(=O)O[C@H](C[C@@H]12)[C@@]43C` [YADANZIOLIDE U], the IC50 in test [1], in test [2], in test [3], in test [4] and in test [5] was above 10 µM throughout.
Consider `CC1=CC(=O)[C@@H](O)[C@@]2(C)[C@H]1[C@@H](O)[C@H]1OC(=O)[C@H](O)[C@]3(O)[C@]14CO[C@]3(CO)[C@@H](O)[C@H](O)[C@H]24` [YADANZIOLIDE B], for which the IC50 in test [1] was 3.33 µM; in test [2], 4.24 µM; in test [3] it was 4.85 µM; in test [4], above 10 µM; in test [5] it was 3.8 µM.
The like results for `CC1(C)C(=O)C(=O)c2c1[nH]c1ccccc21` [BRUCEOLLINE E] were, in that order, above 10 µM, above 10 µM, above 10 µM, above 10 µM and above 10 µM.
